What all share (experiment): NCI-60 cell line screen, 48 h
The subject of assay [1] is DU-145.
For assay [2], the system named is UO-31.
The subject of assay [3] is UACC-62.
Assay [4] concerns RPMI-8226.
Assay [5] concerns SNB-75.
Assay [6] has as its system HCT-15.
Assay [7] has as its system OVCAR-3.
Assay [8] relates to SW-620.
Assay [9] deals with Malme-3M.
In assay [10] the test system is 786-0.
Assay [11] relates to SR.
The test system of assay [12] is MDA-MB-435.
Assay [13] concerns MDA-N.
Assay [14] relates to EKVX.
The test system of assay [15] is NCI-H23.
Assay [16] relates to SK-MEL-2.
Assay [17] deals with SF-539.
For assay [18], the system named is SF-295.
Assay [19] deals with HCC 2998.
Assay [20] has as its system RXF 393.

The structures appear in SMILES notation.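 Results reflect a 48-hour exposure of cells in 96-well plates to compound at five concentrations. The concentration for 50% growth inhibition is given as GI50.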 Activity calls are given as the source filed them. Rule as the data show it: active = GI50 up to about 1.1 µM and inactive = higher.

On to `OCC1CCCCCCCCCCC12SCCCS2` (stereo not drawn), for which the GI50 in [1] is > 100 µM (inactive); in assay [2], > 100 µM (inactive); in assay [3], > 100 µM (inactive); in [4], > 100 µM (inactive); in [5], > 100 µM (inactive); in [6], greater than 100 µM. Moreover, the GI50 in assay [7], in assay [8], in assay [9], in assay [10], in [11] and in [12] was > 100 µM (inactive) in each case. The GI50 in [13], in assay [14], in assay [15] and in [16] was > 100 µM (inactive) each time.

Turning to `O=C1CC2OCC=C3CN4CCC56c7ccccc7N1C5C2C3CC46O` (stereo not drawn), the GI50 in [1], in [2], in assay [17], in assay [3], in assay [4] and in assay [5] was > 100 µM (inactive) each time. For the same compound, the GI50 in [6] was greater than 100 µM; in [7] it was > 100 µM (inactive); in assay [8], > 100 µM (inactive); in assay [9], > 100 µM (inactive); in assay [10] it was > 100 µM (inactive); in assay [12] it was > 100 µM (inactive). Moreover, the GI50 in [18], in [13], in assay [14], in assay [19], in [15] and in assay [16] was > 100 µM (inactive) throughout.

For `C#CC(O)/C=C/C(O)CCCC(O)CC#CC(O)C#CCCCCC(O)/C=C/CCCCCC(=O)CCCCCCCCCCCCCC(O)C(O)C#CC(=O)O` (stereo not drawn), the GI50 in assay [1] was > 25 µM (inactive); in [2] it was 11.5 µM (inactive); in assay [3], > 25 µM (inactive); in [4], > 25 µM (inactive); in [5], > 25 µM (inactive); in assay [6], greater than 25 µM. Moreover, the GI50 is > 25 µM (inactive) in assay [9]; > 25 µM (inactive) in assay [10]; 7.13 µM (inactive) in [11]; > 25 µM (inactive) in [12]; > 25 µM (inactive) in assay [18]; > 25 µM (inactive) in assay [13]. Moreover, the GI50 in assay [14], in assay [19], in assay [15] and in assay [16] was > 25 µM (inactive) each time.

`CCOC(=O)c1nnsc1NC(=O)NN`: the GI50 in [1], in [2], in assay [17], in assay [3], in assay [4] and in assay [5] was > 100 µM (inactive) throughout. The GI50 in [6] is greater than 100 µM; in assay [7], > 100 µM (inactive); in assay [8], > 100 µM (inactive); in [9], > 100 µM (inactive); in assay [20] it was > 100 µM (inactive); in [10] it was 89.3 µM (inactive). The GI50 in assay [12], in assay [18], in assay [13], in [14], in assay [19] and in assay [15] was > 100 µM (inactive) in each case. Besides, the GI50 in assay [16] is > 100 µM (inactive).

As to `Nc1ncnc2c1ccn2CC=C(CO)CO`, the GI50 in assay [1], in assay [2], in [17], in [3], in assay [4] and in assay [5] was > 100 µM (inactive) in each case. The GI50 in assay [6] is greater than 100 µM; in assay [7], > 100 µM (inactive); in [8] it was > 100 µM (inactive); in assay [9], > 100 µM (inactive); in assay [20] it was > 100 µM (inactive); in assay [10] it was > 100 µM (inactive). Moreover, the GI50 in [12], in assay [18], in [13], in assay [14], in [19] and in [15] was > 100 µM (inactive) each time. Moreover, the GI50 in assay [16] is > 100 µM (inactive).

With `COc1cc2cc(C(=O)N3CC(CCl)c4c3cc(N)c3ccccc43)[nH]c2cc1OCCN(C)C` (stereo not drawn), the GI50 in assay [1], in assay [2], in assay [17], in assay [3], in assay [4] and in assay [5] was < 0.005 µM (active) each time. For the same compound, the GI50 in assay [6] is 0.00553 µM; in assay [7], 0.00734 µM (active); in assay [8] it was < 0.005 µM (active); in assay [9], 0.0053 µM (active); in assay [20] it was < 0.005 µM (active); in assay [10], < 0.005 µM (active). Besides, the GI50 was < 0.005 µM (active) in [12]; < 0.005 µM (active) in assay [18]; < 0.005 µM (active) in [13]; 0.00809 µM (active) in assay [14]; < 0.005 µM (active) in assay [19]; < 0.005 µM (active) in assay [15]. Besides, the GI50 in assay [16] is < 0.005 µM (active).

With `CC1(C)CC(=O)c2c(nc(SSc3nc4c(c(-c5ccc(Br)cc5)c3C#N)C(=O)CC(C)(C)C4)c(C#N)c2-c2ccc(Br)cc2)C1`, the GI50 in assay [1] was > 10 µM (inactive); in assay [2] it was > 10 µM (inactive); in assay [17] it was > 10 µM (inactive); in assay [4], > 10 µM (inactive); in assay [5], > 10 µM (inactive); in assay [6], greater than 10 µM. Further, the GI50 in assay [7], in assay [8], in [9], in assay [20], in assay [10] and in assay [11] was > 10 µM (inactive) each time. In addition, the GI50 in assay [18], in [13], in assay [14], in assay [19], in assay [15] and in [16] was > 10 µM (inactive) in each case.

Consider `Clc1ccc(CSCc2ccc(Cl)cc2Cl)c(Cl)c1`, for which the GI50 is 39.6 µM (inactive) in [1]; > 100 µM (inactive) in assay [2]; > 100 µM (inactive) in assay [17]; 50 µM (inactive) in [3]; 28.1 µM (inactive) in assay [4]; 48.3 µM (inactive) in [5]. In addition, the GI50 in assay [6] was 32.2 µM; in assay [7] it was 88.3 µM (inactive); in assay [8], 42.8 µM (inactive); in assay [9], 28.2 µM (inactive); in assay [20] it was 20 µM (inactive); in assay [10], 60.8 µM (inactive). The GI50 in [12] is 41 µM (inactive); in assay [18], 37.3 µM (inactive); in assay [13], 38.8 µM (inactive); in assay [14], 57.5 µM (inactive); in [19], 26.3 µM (inactive); in assay [15], 78.5 µM (inactive). Moreover, the GI50 in [16] is 21.3 µM (inactive).

As for `CCOC(=O)c1c(N)sc2c1C(C(=O)OCC)CCCC2` (stereo not drawn), the GI50 is 37.6 µM (inactive) in assay [2]; 78.3 µM (inactive) in [3]; 46.2 µM (inactive) in [4]; > 100 µM (inactive) in assay [5]; 67.3 µM in assay [6]; > 100 µM (inactive) in assay [8]. Also, the GI50 in assay [9] is > 100 µM (inactive); in assay [20] it was 17.3 µM (inactive); in assay [10] it was > 100 µM (inactive); in assay [11] it was 34.6 µM (inactive); in [13], 69.5 µM (inactive); in assay [14], 85.3 µM (inactive). In addition, the results for the GI50 in assay [19], in [15] and in assay [16] were 76.9 µM (inactive), 62.1 µM (inactive) and 94.4 µM (inactive), respectively.

As to `CCOC(=O)c1nc2ccc(C(F)(F)F)cc2nc1Oc1ccc(OC)cc1`, the GI50 in assay [1], in assay [2], in [17], in [3], in [4] and in assay [5] was > 100 µM (inactive) in each case. The GI50 is greater than 100 µM in assay [6]; > 100 µM (inactive) in [7]; > 100 µM (inactive) in [8]; 62.8 µM (inactive) in assay [9]; > 100 µM (inactive) in assay [20]; > 100 µM (inactive) in assay [10]. Besides, the GI50 was > 100 µM (inactive) in [12]; > 100 µM (inactive) in [18]; > 100 µM (inactive) in assay [13]; 55.2 µM (inactive) in [14]; > 100 µM (inactive) in assay [16].

With `O=C(c1ccccc1)c1ccc2[nH]c(-c3c(Cl)c(Cl)c(Cl)c(Cl)c3C(=O)N/N=C/c3ccccc3)nc2c1`, the GI50 in assay [1] is 38 µM (inactive); in assay [2], 27.5 µM (inactive); in assay [17] it was 25.1 µM (inactive); in assay [4], 23.4 µM (inactive); in assay [5], 17.9 µM (inactive); in assay [6], 23.2 µM. For the same compound, the GI50 in assay [7] was 19.6 µM (inactive); in assay [8], 37.2 µM (inactive); in assay [9], 26.1 µM (inactive); in assay [20] it was 14.4 µM (inactive); in assay [10], 26.1 µM (inactive); in assay [12] it was 9.25 µM (inactive). Further, the GI50 is 22.4 µM (inactive) in assay [18]; 16.3 µM (inactive) in [13]; 18.4 µM (inactive) in assay [14]; 23 µM (inactive) in [15]; 21.6 µM (inactive) in [16].

For the origin of these results see ChEMBL document CHEMBL1201862, “PubChem BioAssay data set” (2004).
